The test system of experiment [1] is Escherichia coli. The experiment in a line: Antibacterial activity against Escherichia coli ATCC25922 assessed as prevention of visible growth by broth microdilution method. It is filed as functional. (In general: Dilution methods test growth across graded concentrations, often in twofold steps.)
The species entered for another experiment is Homo sapiens. Put plainly: Inhibition of human ProRS expressed in Escherichia coli assessed as change in melting temperature in presence of AMPPNP at 0.5 mM by fluorescence-based thermal shift assay.
Experiment [2] relates to Staphylococcus aureus. The experiment in a line: Antibacterial activity against methicillin-resistant Staphylococcus aureus 252 assessed as prevention of visible growth by broth microdilution method. It is filed as functional.
Experiment [3] has as its system Staphylococcus aureus. Put plainly: Inhibition of methicillin-resistant Staphylococcus aureus ProRS expressed in Escherichia coli assessed as change in melting temperature in presence of AMPPNP at 0.5 mM by fluorescence-based thermal shift assay.
The test system of a further experiment is Salmonella typhi. Put plainly: Antibacterial activity against Salmonella typhi CMCC50094 assessed as prevention of visible growth by broth microdilution method. As to conditions: Salmonella enterica. The experiment is classed as functional, Salmonella enterica subsp. enterica serovar Typhi.
The test system of the next experiment is Shigella flexneri. The experiment in a line: Antibacterial activity against Shigella flexneri CMCC51572 assessed as prevention of visible growth by broth microdilution method. The experiment is classed as functional.
The nature of experiment [4]: Inhibition of methicillin-resistant Staphylococcus aureus ProRS expressed in Escherichia coli assessed as generation of inorganic monophosphate by pre-transfer editing-based experiment.
The subject of experiment [5] is Staphylococcus aureus. Put plainly: Antibacterial activity against Staphylococcus aureus ATCC25923 assessed as prevention of visible growth by broth microdilution method. It is filed as functional.
The test system of experiment [6] is Staphylococcus aureus. The experiment in a line: Antibacterial activity against methicillin-resistant Staphylococcus aureus R3708 assessed as prevention of visible growth by broth microdilution method. It is filed as functional.
Experiment [7] deals with Staphylococcus aureus. The experiment in a line: Antibacterial activity against Staphylococcus aureus ATCC29213 assessed as prevention of visible growth by broth microdilution method. It is filed as functional.
Experiment [8] relates to Escherichia coli. Put plainly: Ratio of MBC99.9 for Escherichia coli ATCC25922 to MIC for Escherichia coli ATCC25922. It is filed as functional.
Experiment [9] deals with Staphylococcus aureus. The experiment in a line: Bactericidal activity against methicillin-resistant Staphylococcus aureus 252 assessed as bacterial killing measured after 24 hrs incubation by CLSI method. The experiment is classed as functional. Particulars: read-out: MBC99.9.
Experiment [10] concerns Staphylococcus aureus. The experiment in a line: Ratio of MBC99.9 for methicillin-resistant Staphylococcus aureus 252 to MIC for methicillin-resistant Staphylococcus aureus 252. The experiment is classed as functional.

Converted amounts (≈) assume the structure as drawn. Some results are limits rather than exact numbers.

A word on the MIC: it is the smallest concentration in the dilution series that meets the test's criterion for growth inhibition. By ΔTm is commonly meant the change in melting temperature against a reference sample. As usually defined, the IC50 is the concentration needed to halve the response being measured.

For the molecule `O=C(C[C@@H]1CCCCN1)Cn1cnc2ccc(F)cc2c1=O`, the minimal inhibitory concentration (MIC) with Escherichia coli [1] was 16 µg/mL (≈ 52.7 µM); in the experiment with Staphylococcus aureus [2], 32 µg/mL (≈ 105 µM); in the experiment with Salmonella typhi, 32 µg/mL (≈ 105 µM); in the experiment on Shigella flexneri, 16 µg/mL (≈ 52.7 µM); in the experiment on Staphylococcus aureus [5], 32 µg/mL (≈ 105 µM); in the experiment on Staphylococcus aureus [6], 32 µg/mL (≈ 105 µM). The MIC in the experiment with Staphylococcus aureus [7] was 32 µg/mL (≈ 105 µM). Moreover, the ΔTm stood at 17.9 °C in the experiment filed under Homo sapiens and 6.3 °C in the experiment on Staphylococcus aureus [3]. Also, in experiment [4], the 50% inhibitory concentration (IC50) was found to be 8.2 µM.

Regarding `O=C(C[C@@H]1CCCCN1)Cn1cnc2nccnc2c1=O`, the MIC in the experiment with Escherichia coli [1], in the experiment on Staphylococcus aureus [2], in the experiment on Salmonella typhi, with Shigella flexneri, in the experiment with Staphylococcus aureus [5] and with Staphylococcus aureus [6] was more than 64 µg/mL throughout. Moreover, the MIC in the experiment with Staphylococcus aureus [7] is more than 64 µg/mL. The ΔTm in the experiment filed under Homo sapiens was 4.9 °C; in the experiment on Staphylococcus aureus [3] it was 0 °C. Moreover, the IC50 in [4] was more than 100 µM.

As to `CC(C)(C)c1ccc2c(=O)n(CC(=O)C[C@@H]3CCCCN3)cnc2c1`, the MIC in the experiment with Escherichia coli [1], in the experiment with Staphylococcus aureus [2], with Salmonella typhi, in the experiment with Shigella flexneri, in the experiment on Staphylococcus aureus [5] and in the experiment on Staphylococcus aureus [6] was more than 64 µg/mL in each case. Moreover, the MIC in the experiment on Staphylococcus aureus [7] is more than 64 µg/mL. In addition, the figures for the ΔTm in the experiment filed under Homo sapiens and in the experiment with Staphylococcus aureus [3] were 3.9 °C and 0 °C, respectively. Moreover, the IC50 in experiment [4] was more than 100 µM.

As to `O=C(C[C@@H]1CCCCN1)Cn1cnc2cc(Br)c(Cl)cc2c1=O`, the MIC in the experiment on Escherichia coli [1] stood at 32 µg/mL (≈ 80.3 µM); in the experiment with Staphylococcus aureus [2], 16 µg/mL (≈ 40.1 µM); in the experiment with Salmonella typhi, 32 µg/mL (≈ 80.3 µM); in the experiment with Shigella flexneri it was 16 µg/mL (≈ 40.1 µM); in the experiment on Staphylococcus aureus [5], 32 µg/mL (≈ 80.3 µM); in the experiment on Staphylococcus aureus [6], 16 µg/mL (≈ 40.1 µM). The MIC in the experiment on Staphylococcus aureus [7] came to 16 µg/mL (≈ 40.1 µM). The ΔTm was 17.9 °C in the experiment listed under Homo sapiens and 6.2 °C in the experiment on Staphylococcus aureus [3]. In addition, the IC50 in [4] was 0.61 µM.

`O=c1c2cc(Cl)c(Br)cc2ncn1CC(O)C[C@@H]1CCCCN1` (stereo partly drawn): the MIC in the experiment with Escherichia coli [1], in the experiment on Staphylococcus aureus [2], in the experiment on Salmonella typhi, with Shigella flexneri, with Staphylococcus aureus [5] and with Staphylococcus aureus [6] was more than 64 µg/mL each time. In addition, the MIC with Staphylococcus aureus [7] is more than 64 µg/mL. Further, the figures for the shift in melting temperature (ΔTm) in the experiment filed under Homo sapiens and in the experiment with Staphylococcus aureus [3] were 11.9 °C and 0 °C, respectively. In [4], the IC50 is more than 100 µM.

For the molecule `O=C(C[C@@H]1CCCCN1)Cn1cnc2cc3c(cc2c1=O)OCO3`, the MIC in the experiment on Escherichia coli [1], in the experiment on Staphylococcus aureus [2], in the experiment with Salmonella typhi, with Shigella flexneri, in the experiment with Staphylococcus aureus [5] and in the experiment on Staphylococcus aureus [6] was more than 64 µg/mL throughout. For the same molecule, the MIC in the experiment with Staphylococcus aureus [7] was more than 64 µg/mL. In addition, the figures for the ΔTm in the experiment filed under Homo sapiens and in the experiment on Staphylococcus aureus [3] were 15.9 °C and 2.1 °C, respectively. In addition, the 50% inhibitory concentration (IC50) in [4] came out at 36.3 µM.

Consider `O=c1c2ccccc2ncn1CCC[C@@H]1CCCCN1`, for which the MIC with Escherichia coli [1], in the experiment with Staphylococcus aureus [2], in the experiment with Salmonella typhi, in the experiment on Shigella flexneri, in the experiment on Staphylococcus aureus [5] and in the experiment on Staphylococcus aureus [6] was more than 64 µg/mL in each case. In addition, in the experiment on Staphylococcus aureus [7], the MIC was more than 64 µg/mL. The ΔTm in the experiment listed under Homo sapiens stood at 4.2 °C; in the experiment with Staphylococcus aureus [3], 0 °C. The IC50 in [4] is more than 100 µM.

As for `O=C(C[C@@H]1CCCCN1)Cn1cnc2cc(F)c(F)cc2c1=O`, the MIC in the experiment on Escherichia coli [1] was 4 µg/mL (≈ 12.4 µM); in the experiment on Staphylococcus aureus [2] it was 16 µg/mL (≈ 49.8 µM); in the experiment with Salmonella typhi, 16 µg/mL (≈ 49.8 µM); in the experiment on Shigella flexneri it was 4 µg/mL (≈ 12.4 µM); with Staphylococcus aureus [5], 32 µg/mL (≈ 99.6 µM); with Staphylococcus aureus [6], 32 µg/mL (≈ 99.6 µM). In addition, in the experiment on Staphylococcus aureus [7], the MIC came to 16 µg/mL (≈ 49.8 µM). Also, the ΔTm turned out to be 19.2 °C in the experiment listed under Homo sapiens and 7.3 °C with Staphylococcus aureus [3]. Also, the Ratio in the experiment with Escherichia coli [8] amounted to 16; in the experiment on Staphylococcus aureus [10], 8. The MBC in the experiment with Staphylococcus aureus [9] stood at 128 µg/mL (≈ 398 µM). Also, in experiment [4], the IC50 is 0.63 µM.

As to `O=C(C[C@@H]1CCCCN1)Cn1cnc2cc3ccccc3cc2c1=O`, the MIC in the experiment with Escherichia coli [1], with Staphylococcus aureus [2], in the experiment on Salmonella typhi, in the experiment with Shigella flexneri, in the experiment with Staphylococcus aureus [5] and in the experiment with Staphylococcus aureus [6] was more than 64 µg/mL each time. The MIC with Staphylococcus aureus [7] is more than 64 µg/mL. Further, the ΔTm is 7.9 °C in the experiment listed under Homo sapiens and 0 °C in the experiment on Staphylococcus aureus [3]. Also, the IC50 in [4] is more than 100 µM.

Turning to `Cc1cc2ncn(CC(=O)C[C@@H]3CCCCN3)c(=O)c2cc1C`, the MIC in the experiment with Escherichia coli [1], in the experiment with Staphylococcus aureus [2], in the experiment with Salmonella typhi, with Shigella flexneri, in the experiment on Staphylococcus aureus [5] and in the experiment on Staphylococcus aureus [6] was more than 64 µg/mL each time. Moreover, in the experiment with Staphylococcus aureus [7], the MIC is more than 64 µg/mL. The figures for the ΔTm in the experiment listed under Homo sapiens and with Staphylococcus aureus [3] were 13.9 °C and 1.3 °C, respectively. Besides, the IC50 in experiment [4] was 17.6 µM.

These data come from ChEMBL document CHEMBL5150045, “Structure-Guided Design of Halofuginone Derivatives as ATP-Aided Inhibitors Against Bacterial Prolyl-tRNA Synthetase” (J Med Chem, 2022).
